Assay results from patent publication US11840517B2, “Lappaconitine derivative with analgesic activity, and preparation and application thereof” (priority 2021, dated 2023).

Tested on: Kunming mice
Assay: Analgesic activity by acetic acid-induced writhing method
Assay type: in vivo
Settings: Mus musculus, sc; Dosing concentration 3.5 mg/kg, subcutaneous, 15 min before i.p. 0.7% acetic acid; writhing inhibition vs blank group; read-out: Analgesia rate ± SEM (%)
Method: The experimental animals were Kunming mice (male:female=1:1), weighed 22±2 g, which were provided by Chengdu dossy experimental animals Co., ltd., China. The mice were kept in the animal room of the School of Life Science and Engineering, Southwest Jiaotong University, where the animal room was set at a temperature of 23±2° C., a humidity of 55±5% and a photoperiod of 16:8 h (L:D). Before the experiment, the mice were freely fed for 2-3 days with water and feed to adapt to the new environment. Then, the mice were treated by water fasting for 12 h. 10 animals were allocated to each group to ensure that there are at least 6 sets of valid data in each group. The animal experiments were carried out in strict accordance with the national regulations on the management of experimental animals.
The compounds prepared in the examples provided herein and the positive control lappaconitine were all dissolved with 0.1 mol/L HCl according to the amount of the substance ratio of 1:1, and then diluted with physiological saline to a concentration to be determined. The samples to be tested were the compounds prepared the examples provided herein; the positive control was lappaconitine; and the blank control was physiological saline containing 0.1 mol/L HCl.
The animals in the control groups were subjected to the same treatment as those in the experimental group except that the samples to be test were replaced with physiological saline.
10 mice were randomly selected, male:female=1:1, were placed in independent cages. Each mouse was injected subcutaneously with the sample solution mentioned above at a dose of 0.1 mL/10 g body weight. After 15 min, a 0.7% acetic acid solution was intraperitoneally injected. The number of writhing reactions in each mouse within 15 minutes was recorded. The group that the mice were injected with physiological saline subcutaneously was the blank group; the group that the mice were injected with the sample to be tested was the experimental group; and the group that the mice were injected with lappaconitine was the positive group. The analgesic activity was represented by a percentage of the reduced number of writhing compared to the blank group (writhing inhibition rate), which were specifically as follows: writhing inhibition rate (analgesic activity)=(average number of writhing times in the blank group-average number of writhing times in the experimental group)/average number of writhing times in the blank group×100%.

Row | SMILES | inhibition in vivo at 3.5 mg/kg
1 | CCN1C[C@]2(OC(=O)c3ccccc3NS(=O)(=O)c3ccc(OC)cc3)CC[C@H](OC)[C@@]34C2CC([C@@H]13)[C@@]1(O)C[C@H](OC)[C@H]2CC4[C@]1(O)[C@H]2OC (stereo partly drawn) [Compound 20] | 16.8 ± 6.09%
2 | CCN1C[C@]2(OC(=O)c3ccccc3NS(=O)(=O)c3cccc(OC)c3)CC[C@H](OC)[C@@]34C2CC([C@@H]13)[C@@]1(O)C[C@H](OC)[C@H]2CC4[C@]1(O)[C@H]2OC (stereo partly drawn) [Compound 13] | 37.1 ± 15.7%
3 | CCN1C[C@]2(OC(=O)c3ccccc3NS(=O)(=O)c3ccc(F)cc3)CC[C@H](OC)C34C2CC([C@@H]13)[C@@]1(O)C[C@H](OC)[C@H]2CC4[C@]1(O)[C@H]2OC (stereo partly drawn) [Compound 23] | 14.7 ± 13.2%
4 | CCN1C[C@]2(OC(=O)c3ccccc3NS(=O)(=O)c3ccc(C)cc3)CC[C@H](OC)[C@@]34C2CC([C@@H]13)[C@@]1(O)C[C@H](OC)[C@H]2CC4[C@]1(O)[C@H]2OC (stereo partly drawn) [Compound 15] | 27.7 ± 12.9%

Same assay, conditions: Mus musculus, sc; Dosing concentration 5 mg/kg, subcutaneous, 15 min before i.p. 0.7% acetic acid; writhing inhibition vs blank group; read-out: Analgesia rate ± SEM (%)

Row | SMILES | inhibition in vivo at 5 mg/kg
5 | CCN1C[C@]2(OC(=O)c3ccccc3NC(=O)C3CC3)CC[C@H](OC)C3C2C[C@@H]([C@@H]1C)[C@@]1(O)CC(OC)[C@H]2CC3[C@]1(O)[C@H]2OC (stereo partly drawn) [Compound 39] | 33.5 ± 7.27%

Same assay, conditions: Mus musculus, sc; Dosing concentration 10 mg/kg, subcutaneous, 15 min before i.p. 0.7% acetic acid; writhing inhibition vs blank group; read-out: Analgesia rate ± SEM (%)

Row | SMILES | inhibition in vivo at 10 mg/kg
6 | CCc1ccc(C(=O)Nc2ccccc2C(=O)O[C@@]23CC[C@H](OC)C4C2C[C@@H]([C@H](C)N(CC)C3)[C@@]2(O)CC(OC)[C@H]3CC4[C@]2(O)[C@H]3OC)cc1 (stereo partly drawn) [Compound 46] | 26.7 ± 7.95%
7 | CCN1C[C@]2(OC(=O)c3ccccc3NS(=O)(=O)Cc3ccc([N+](=O)[O-])cc3)CC[C@H](OC)[C@@]34C2CC([C@@H]13)[C@@]1(O)C[C@H](OC)[C@H]2CC4[C@]1(O)[C@H]2OC (stereo partly drawn) [Compound 11] | 42.4 ± 5.98%
8 | CCN1C[C@]2(OC(=O)c3ccccc3NS(=O)(=O)c3cccc4ccccc34)CC[C@H](OC)[C@@]34C2CC([C@@H]13)[C@@]1(O)C[C@H](OC)[C@H]2CC4[C@]1(O)[C@H]2OC (stereo partly drawn) [Compound 8] | 49.2 ± 5%
9 | CCN1C[C@]2(OC(=O)c3ccccc3NS(=O)(=O)CC)CC[C@H](OC)C34C2CC([C@@H]13)[C@@]1(O)C[C@H](OC)[C@H]2CC4[C@]1(O)[C@H]2OC (stereo partly drawn) [Compound 27] | 4.02 ± 9.5%
10 | CCOC(=O)Nc1ccccc1C(=O)O[C@@]12CC[C@H](OC)C34C1CC([C@H]3N(CC)C2)[C@@]1(O)C[C@H](OC)[C@H]2CC4[C@]1(O)[C@H]2OC (stereo partly drawn) [Compound 21] | 16.4 ± 11.5%
11 | CCN1C[C@]2(OC(=O)c3ccccc3NS(C)(=O)=O)CC[C@H](OC)[C@@]34C2CC([C@@H]13)[C@@]1(O)C[C@H](OC)[C@H]2CC4[C@]1(O)[C@H]2OC (stereo partly drawn) [Compound 17] | 22.8 ± 7.58%
12 | CCN1C[C@]2(OC(=O)c3ccccc3NC(=O)c3ccc(Cl)cc3)CC[C@H](OC)C3C2C[C@@H]([C@@H]1C)[C@@]1(O)CC(OC)[C@H]2CC3[C@]1(O)[C@H]2OC (stereo partly drawn) [Compound 40] | 31.6 ± 12.6%
13 | CCN1C[C@]2(OC(=O)c3ccccc3NC(=O)c3ccc(C(C)C)cc3)CC[C@H](OC)C3C2C[C@@H]([C@@H]1C)[C@@]1(O)CC(OC)[C@H]2CC3[C@]1(O)[C@H]2OC (stereo partly drawn) [Compound 49] | 21 ± 6.58%
14 | CCN1C[C@]2(OC(=O)c3ccccc3NS(=O)(=O)c3cccc4cccnc34)CC[C@H](OC)[C@@]34C2CC([C@@H]13)[C@@]1(O)C[C@H](OC)[C@H]2CC4[C@]1(O)[C@H]2OC (stereo partly drawn) [Compound 12] | 41.9 ± 3.8%
15 | CCN1C[C@]2(OC(=O)c3ccccc3NC(=O)C3CCCC3)CC[C@H](OC)C34C2CC([C@@H]13)[C@@]1(O)C[C@H](OC)[C@H]2CC4[C@]1(O)[C@H]2OC (stereo partly drawn) [Compound 33] | 56.9 ± 3.82%
16 | CCN1C[C@]2(OC(=O)c3ccccc3NC(=O)c3cnc(Cl)cn3)CC[C@H](OC)C3C2C[C@@H]([C@@H]1C)[C@@]1(O)CC(OC)[C@H]2CC3[C@]1(O)[C@H]2OC (stereo partly drawn) [Compound 41] | 31.5 ± 8.19%
17 | CCN1C[C@]2(OC(=O)c3ccccc3NS(=O)(=O)c3cccc(F)c3)CC[C@H](OC)[C@@]34C2CC([C@@H]13)[C@@]1(O)C[C@H](OC)[C@H]2CC4[C@]1(O)[C@H]2OC (stereo partly drawn) [Compound 7] | 50.2 ± 6.85%
18 | CCN1C[C@]2(OC(=O)c3ccccc3NS(=O)(=O)c3cccs3)CC[C@H](OC)C34C2CC([C@@H]13)[C@@]1(O)C[C@H](OC)[C@H]2CC4[C@]1(O)[C@H]2OC (stereo partly drawn) [Compound 29] | 1.03 ± 5.37%
19 | CCN1C[C@]2(OC(=O)c3ccccc3NC(=O)OC(C)C)CC[C@H](OC)[C@@]34C2CC([C@@H]13)[C@@]1(O)C[C@H](OC)[C@H]2CC4[C@]1(O)[C@H]2OC (stereo partly drawn) [Compound 14] | 28.4 ± 4.98%
20 | CCN1C[C@]2(OC(=O)c3ccccc3NS(=O)(=O)c3cccc4c(N(C)C)cccc34)CC[C@H](OC)[C@@]34C2CC([C@@H]13)[C@@]1(O)C[C@H](OC)[C@H]2CC4[C@]1(O)[C@H]2OC (stereo partly drawn) [Compound 10] | 42.5 ± 2.56%
21 | CCN1C[C@]2(OC(=O)c3ccccc3NS(=O)(=O)Oc3ccccc3)CC[C@H](OC)C34C2CC([C@@H]13)[C@@]1(O)C[C@H](OC)[C@H]2CC4[C@]1(O)[C@H]2OC (stereo partly drawn) [Compound 28] | 1.03 ± 10.3%

Row | SMILES | inhibition in vivo at 10 mg/kg
22 | CCN1C[C@]2(OC(=O)c3ccccc3NS(=O)(=O)c3ccccc3F)CC[C@H](OC)[C@@]34C2CC([C@@H]13)[C@@]1(O)C[C@H](OC)[C@H]2CC4[C@]1(O)[C@H]2OC (stereo partly drawn) [Compound 6] | 60.3 ± 5.94%
23 | CCN1C[C@]2(OC(=O)c3ccccc3NC(=O)C3CCOC3)CC[C@H](OC)C3C2C[C@@H]([C@@H]1C)[C@@]1(O)CC(OC)[C@H]2CC3[C@]1(O)[C@H]2OC (stereo partly drawn) [Compound 38] | 34 ± 8.92%
24 | CCN1C[C@]2(OC(=O)c3ccccc3NC(=O)c3ccc(I)cc3)CC[C@H](OC)C3C2C[C@@H]([C@@H]1C)[C@@]1(O)CC(OC)[C@H]2CC3[C@]1(O)[C@H]2OC (stereo partly drawn) [Compound 43] | 31.1 ± 8.56%
25 | C/C=C/S(=O)(=O)Nc1ccccc1C(=O)O[C@@]12CC[C@H](OC)[C@@]34C1CC([C@H]3N(CC)C2)[C@@]1(O)C[C@H](OC)[C@H]2CC4[C@]1(O)[C@H]2OC (stereo partly drawn) [Compound 16] | 24.4 ± 8.46%
26 | CCN1C[C@]2(OC(=O)c3ccccc3NS(=O)(=O)c3ccc(C(F)(F)F)cc3)CC[C@H](OC)[C@@]34C2CC([C@@H]13)[C@@]1(O)C[C@H](OC)[C@H]2CC4[C@]1(O)[C@H]2OC (stereo partly drawn) [Compound 19] | 19.4 ± 5%
27 | CCCCc1ccc(C(=O)Nc2ccccc2C(=O)O[C@@]23CC[C@H](OC)C4C2C[C@@H]([C@H](C)N(CC)C3)[C@@]2(O)CC(OC)[C@H]3CC4[C@]2(O)[C@H]3OC)cc1 (stereo partly drawn) [Compound 44] | 28.2 ± 7.88%
28 | CCN1C[C@]2(OC(=O)c3ccccc3NC(=O)C3CCOCC3)CC[C@H](OC)C3C2C[C@@H]([C@@H]1C)[C@@]1(O)CC(OC)[C@H]2CC3[C@]1(O)[C@H]2OC (stereo partly drawn) [Compound 50] | 16.4 ± 8.07%
29 | CCN1C[C@]2(OC(=O)c3ccccc3NS(=O)(=O)c3ccc(Cl)cc3)CC[C@H](OC)C34C2CC([C@@H]13)[C@@]1(O)C[C@H](OC)[C@H]2CC4[C@]1(O)[C@H]2OC (stereo partly drawn) [Compound 25] | 11.7 ± 7.78%
30 | CCN1C[C@]2(OC(=O)c3ccccc3NC(=O)CC(C)(C)C)CC[C@H](OC)C3C2C[C@@H]([C@@H]1C)[C@@]1(O)CC(OC)[C@H]2CC3[C@]1(O)[C@H]2OC (stereo partly drawn) [Compound 47] | 24.9 ± 9.7%
31 | CCN1C[C@]2(OC(=O)c3ccccc3NS(=O)(=O)c3ccc(-c4ccccc4)cc3)CC[C@H](OC)C34C2CC([C@@H]13)[C@@]1(O)C[C@H](OC)[C@H]2CC4[C@]1(O)[C@H]2OC (stereo partly drawn) [Compound 22] | 16.1 ± 10.6%
32 | CCN1C[C@]2(OC(=O)c3ccccc3NS(=O)(=O)c3ccc(Br)cc3)CC[C@H](OC)C34C2CC([C@@H]13)[C@@]1(O)C[C@H](OC)[C@H]2CC4[C@]1(O)[C@H]2OC (stereo partly drawn) [Compound 26] | 11.4 ± 7.58%
33 | CCN1C[C@]2(OC(=O)c3ccccc3NC(=O)C3CCCO3)CC[C@H](OC)C3C2C[C@@H]([C@@H]1C)[C@@]1(O)CC(OC)[C@H]2CC3[C@]1(O)[C@H]2OC (stereo partly drawn) [Compound 48] | 21.8 ± 12.6%
34 | CCCC(C)C(=O)Nc1ccccc1C(=O)O[C@@]12CC[C@H](OC)C3C1C[C@@H]([C@H](C)N(CC)C2)[C@@]1(O)CC(OC)[C@H]2CC3[C@]1(O)[C@H]2OC (stereo partly drawn) [Compound 42] | 31.3 ± 10.7%
35 | CCN1C[C@]2(OC(=O)c3ccccc3NC(=O)C3CCCCC3)CC[C@H](OC)C3C2C[C@@H]([C@@H]1C)[C@@]1(O)CC(OC)[C@H]2CC3[C@]1(O)[C@H]2OC (stereo partly drawn) [Compound 37] | 34.5 ± 4.68%
36 | CCN1C[C@]2(OC(=O)c3ccccc3NC(=O)NC)CC[C@H](OC)[C@@]34C2CC([C@@H]13)[C@@]1(O)C[C@H](OC)[C@H]2CC4[C@]1(O)[C@H]2OC (stereo partly drawn) [Compound 18] | 20 ± 6.67%
